Reference: the supplement of paper PMC10307832

Tests used:
Assay in all cases: relative viability (nuclei count vs DMSO), 5 days (fraction); higher = more cells survive
AT-7519 + Decitabine = compound: O=C(NC1CCNCC1)c1n[nH]cc1NC(=O)c1c(Cl)cccc1Cl [AT-7519] + Nc1ncn([C@H]2C[C@H](O)[C@@H](CO)O2)c(=O)n1 [Decitabine] (partner 2 µM)
In short: (§1)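 Lung cancer cell lines, seeded in 1536-well plates, were treated the following day by pin tool with a single drug or with five library-drug doses (not always all listed) in √10 steps on top of a fixed anchor-drug dose. Cells were fixed and nuclei stained in one step after 5 days, and nuclei were counted. Relative viability is the nuclei count for treated wells divided by that for vehicle wells, reported as medians of duplicate plates.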

[1] = compound: C1=CC2=C(C=C(C(=C2N=C1)O)N=NC3=CC4=C(C=C3)C=C(C=C4)S(=O)(=O)O)S(=O)(=O)O + Nc1nc2[nH]cc(CCc3ccc(C(=O)N[C@@H](CCC(=O)O)C(=O)O)cc3)c2c(=O)[nH]1 [Pemetrexed] (partner 0.2 µM)
In short: as §1

AT-7519 + OSI-027 = compound: O=C(NC1CCNCC1)c1n[nH]cc1NC(=O)c1c(Cl)cccc1Cl [AT-7519] + COc1cccc2cc(-c3nc([C@H]4CC[C@H](C(=O)O)CC4)n4ncnc(N)c34)[nH]c12 [OSI-027] (partner 0.5 µM)
In short: as §1

AT-7519 + Olaparib = compound: O=C(NC1CCNCC1)c1n[nH]cc1NC(=O)c1c(Cl)cccc1Cl [AT-7519] + O=C(c1cc(Cc2n[nH]c(=O)c3ccccc23)ccc1F)N1CCN(C(=O)C2CC2)CC1 [Olaparib] (partner 8 µM)
In short: as §1

Cell Line	relative viability (AT-7519 + Decitabine; first compound 0.01 µM)	relative viability (AT-7519 + Decitabine; first compound 0.03162 µM)	relative viability (AT-7519 + Decitabine; first compound 0.3162 µM)	relative viability (AT-7519 + Decitabine; first compound 1 µM)	relative viability ([1]; first compound 0.08 µM)	relative viability ([1]; first compound 0.253 µM)	relative viability ([1]; first compound 0.8 µM)	relative viability ([1]; first compound 2.53 µM)	relative viability ([1]; first compound 8 µM)	relative viability (AT-7519 + OSI-027; first compound 0.01 µM)	relative viability (AT-7519 + OSI-027; first compound 0.03162 µM)	relative viability (AT-7519 + OSI-027; first compound 0.3162 µM)	relative viability (AT-7519 + OSI-027; first compound 1 µM)	relative viability (AT-7519 + Olaparib; first compound 0.01 µM)	relative viability (AT-7519 + Olaparib; first compound 0.03162 µM)	relative viability (AT-7519 + Olaparib; first compound 0.3162 µM)	relative viability (AT-7519 + Olaparib; first compound 1 µM)
NCI-H1666	0.819	0.725	0.774	0.673	0.824	0.85	0.827	0.891	0.892	0.825	0.82	0.838	0.652	0.674	0.724	0.68	0.65
LC-2-ad	0.789	0.765	0.838	0.737	0.28	0.278	0.265	0.261	0.274	0.733	0.866	0.862	0.514	0.75	0.726	0.736	0.622
SK-LU-1	0.602	0.653	0.569	0.501	1.04	0.937	0.956	0.954	1.01	0.356	0.315	0.282	0.168	0.462	0.458	0.489	0.324
ChaGo-K-1	0.534	0.526	0.519	0.461	0.256	0.257	0.272	0.256	0.242	0.642	0.556	0.457	0.447	0.379	0.403	0.431	0.403
COR-L 105	0.687	0.682	0.608	0.351	1.3	1.14	1.21	1.04	1.1	0.6	0.58	0.674	0.401	0.71	0.714	0.726	0.564
NCI-H1975	0.398	0.371	0.252	0.271	0.315	0.297	0.302	0.29	0.303	0.827	0.778	0.503	0.191	0.816	0.67	0.641	0.15
NCI-H1993	0.671	0.597	0.543	0.391	0.511	0.539	0.6	0.589	0.617	0.569	0.494	0.49	0.563	1.04	0.833	0.973	0.769
RERF-LC-KJ	0.738	0.701	0.452	0.229	0.488	0.483	0.464	0.463	0.457	0.572	0.53	0.54	0.25	0.884	0.964	0.659	0.242
NCI-H23	0.296	0.296	0.298	0.254	0.681	0.648	0.669	0.579	0.693	0.475	0.521	0.664	0.396	0.368	0.265	0.327	0.173
HCC-366	0.324	0.31	0.336	0.215	0.162	0.14	0.157	0.145	0.163	0.769	0.808	0.89	0.718	0.409	0.424	0.281	0.164
EMC-BAC-2	0.93	0.924	0.935	0.692	0.417	0.433	0.433	0.458	0.421	0.363	0.343	0.358	0.476	0.508	0.48	0.506	0.56
NCI-H2405	0.741	0.744	0.711	0.486	1.1	1.08	0.976	1.11	0.982	0.593	0.655	0.595	0.478	0.89	0.783	0.906	0.606
NCI-H358	0.202	0.193	0.198	0.112	0.159	0.16	0.162	0.163	0.171	0.83	0.676	0.527	0.194	0.608	0.48	0.36	0.11
NCI-H1944	0.443	0.415	0.434	0.344	0.61	0.559	0.57	0.634	0.395	0.436	0.402	0.367	0.328	0.383	0.424	0.412	0.337
NCI-H1648	0.427	–	0.438	0.445	–	0.695	–	–	0.855	0.265	–	0.262	0.293	0.852	–	0.696	0.49
EPLC-272H	0.367	0.322	0.387	0.298	0.327	0.364	0.358	0.374	0.379	0.283	0.296	0.264	0.206	0.604	0.591	0.606	0.0569
NCI-H1915	0.25	0.248	0.288	0.235	0.523	0.464	0.473	0.461	0.446	0.406	0.598	0.521	0.394	0.25	0.273	0.292	0.208
NCI-H596	0.939	0.967	0.789	1.16	0.557	0.452	0.52	0.493	0.486	0.723	0.628	0.644	0.754	0.64	0.733	0.691	0.644
NCI-H322M	0.654	0.643	0.631	0.554	0.663	0.663	0.608	0.587	0.669	0.539	0.521	0.422	0.428	0.746	0.739	0.249	0.643

Cell Line	relative viability (AT-7519 + Decitabine; first compound 0.01 µM)	relative viability (AT-7519 + Decitabine; first compound 0.03162 µM)	relative viability (AT-7519 + Decitabine; first compound 0.3162 µM)	relative viability (AT-7519 + Decitabine; first compound 1 µM)	relative viability ([1]; first compound 0.08 µM)	relative viability ([1]; first compound 0.253 µM)	relative viability ([1]; first compound 0.8 µM)	relative viability ([1]; first compound 2.53 µM)	relative viability ([1]; first compound 8 µM)	relative viability (AT-7519 + OSI-027; first compound 0.01 µM)	relative viability (AT-7519 + OSI-027; first compound 0.03162 µM)	relative viability (AT-7519 + OSI-027; first compound 0.3162 µM)	relative viability (AT-7519 + OSI-027; first compound 1 µM)	relative viability (AT-7519 + Olaparib; first compound 0.01 µM)	relative viability (AT-7519 + Olaparib; first compound 0.03162 µM)	relative viability (AT-7519 + Olaparib; first compound 0.3162 µM)	relative viability (AT-7519 + Olaparib; first compound 1 µM)
NCI-H2342	0.709	0.61	0.701	0.631	0.82	0.791	0.766	0.807	0.765	0.628	0.533	0.591	0.62	0.391	0.427	0.454	0.443
NCI-H647	0.379	0.37	0.416	0.237	0.174	0.189	0.182	0.183	0.168	0.538	0.675	0.676	0.471	0.355	0.55	0.482	0.189
SK-MES-1	0.349	0.348	0.361	0.35	0.972	0.953	0.932	0.942	0.882	0.615	0.58	0.564	0.332	0.662	0.791	0.56	0.257
NCI-H2170	0.495	0.454	0.461	0.522	0.288	0.281	0.284	0.266	0.251	0.782	0.685	0.687	0.719	0.585	0.59	0.608	0.562
NCI-H2085	0.621	0.561	0.532	0.508	0.923	0.864	0.846	0.903	0.92	0.739	0.662	0.626	0.651	0.768	0.806	0.744	0.724
SW 1573	0.471	0.424	0.34	0.137	0.881	0.817	0.78	0.838	0.257	0.604	0.659	0.436	0.107	0.463	0.505	0.2	0.0972
NCI-H441	0.253	0.213	0.26	0.152	0.251	0.27	0.246	0.26	0.297	0.679	0.603	0.582	0.408	0.524	0.559	0.446	0.204
LOU-NH91	0.761	0.791	0.795	0.739	0.365	0.38	0.393	0.361	0.36	0.738	0.742	0.72	0.711	0.911	0.899	0.931	0.785
NCI-H3122	0.508	0.484	0.511	0.193	0.194	0.201	0.202	0.189	0.182	1.09	0.871	0.357	0.152	0.664	0.651	0.627	0.579
NCI-H460	0.452	0.432	0.388	0.0681	0.0636	0.0585	0.066	0.0648	0.0698	0.906	0.686	0.288	0.0567	0.367	0.456	0.315	0.18
NCI-H650	0.387	0.281	0.335	0.274	1.04	0.922	0.956	0.936	0.791	0.529	0.496	0.498	0.711	0.413	0.384	0.439	0.349
NCI-H661	0.568	0.538	0.534	0.254	0.891	0.925	0.893	0.945	0.901	0.671	0.694	0.564	0.333	0.775	0.834	0.762	0.251
NCI-H1793	0.517	0.551	0.449	0.378	1	0.844	0.799	0.841	0.888	0.229	0.254	0.285	0.247	0.849	0.774	0.786	0.546
NCI-H1734	0.46	0.463	0.486	0.351	0.387	0.43	0.417	0.421	0.443	0.521	0.543	0.445	0.397	0.535	0.585	0.537	0.263
LXF-289	0.383	0.377	0.333	0.375	0.919	0.869	0.841	0.962	0.885	0.758	0.666	0.706	0.737	1.09	1.15	1.02	1.06
H3255	0.721	0.58	0.573	0.57	0.545	0.576	0.559	0.556	0.57	0.572	0.517	0.591	0.508	0.581	0.514	0.527	0.451
201T	0.915	0.853	0.831	0.862	0.324	0.319	0.341	0.332	0.354	0.694	0.739	1.01	0.812	0.895	0.846	0.917	0.666
NCI-H2126	0.524	0.568	0.552	0.495	0.671	0.641	0.689	0.723	0.75	0.668	0.665	0.575	0.688	0.902	0.935	0.932	0.874
